According to ChEMBL document CHEMBL1201862, “PubChem BioAssay data set” (2004):
The source made the active and inactive calls.

Tests used:
[1] = Luminescence Cell-Based Dose Confirmation HTS to Identify Inhibitors of Platelet Dense Granule Release. [Related pubchem assays: 1663 (Primary HTS), 1678 (Summary of Project)]; assay type: functional
[2] = molecular target: Luciferin 4-monooxygenase (Photinus pyralis, UniProt P08659); experiment: firefly luciferase enzyme inhibitors, dose response, biochemical, luminescence (AID 1891)
[3] = Luminescence Cell-Based Dose Retest to Confirm Inhibitors of Cancer Stem Cells. [Related pubchem assays (depositor defined):AID2717, AID2721]; assay type: functional; conditions: Homo sapiens
[4] = molecular target: T1, Polyadenylate-binding protein 1 (Homo sapiens, UniProt P11940); experiment: PABP1 MLLE–PAM2 binding inhibitor potency, dose response, biochemical, fluorescence polarization, FITC-PAM2 peptide (AID 602259); assay type: functional; conditions: read-out: IC50_Mean
[5] = molecular target: T1, Polyadenylate-binding protein 1; experiment: PABP1 MLLE–PAM2 interaction inhibitors, dose response, miRNA deadenylation inhibitor project, biochemical, fluorescence polarization, Cy5-PAM2 peptide, secondary (AID 602260); assay type: functional; conditions: read-out: IC50_Mean
[6] = system: Streptococcus; experiment: Group A Streptococcus viability loss, dose response, counter-screen for streptokinase expression inhibitor project, luminescence, BacTiterGlo (AID 1915); assay type: functional, organism-based;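 note: potency for reduction of bacterial viability or growth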
[7] = molecular target: Cytochrome P450 3A4 (Homo sapiens, UniProt P08684);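 note: CYP3A4 tested as one member of a cytochrome P450 panel screen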
[8] = system: Streptococcus sp. 'group A'; experiment: growth inhibition of control SK(-) GAS strain, dose response, counter-screen for streptokinase expression inhibitor project, luminescence, kanamycin, BacTiterGlo, confirmation (AID 1900); assay type: functional, organism-based
[9] = molecular target: T2, Streptokinase A (Streptococcus pyogenes serotype M1, UniProt P10520); experiment: S. pyogenes streptokinase expression inhibitors, potency, dose response, plasminogen activation absorbance, OD405 (AID 1914); assay type: functional, Streptococcus pyogenes M1 GAS;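 note: secreted streptokinase activity via plasminogen activation per viability signal from cell pellet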
T2 sequence (P10520 whole entry): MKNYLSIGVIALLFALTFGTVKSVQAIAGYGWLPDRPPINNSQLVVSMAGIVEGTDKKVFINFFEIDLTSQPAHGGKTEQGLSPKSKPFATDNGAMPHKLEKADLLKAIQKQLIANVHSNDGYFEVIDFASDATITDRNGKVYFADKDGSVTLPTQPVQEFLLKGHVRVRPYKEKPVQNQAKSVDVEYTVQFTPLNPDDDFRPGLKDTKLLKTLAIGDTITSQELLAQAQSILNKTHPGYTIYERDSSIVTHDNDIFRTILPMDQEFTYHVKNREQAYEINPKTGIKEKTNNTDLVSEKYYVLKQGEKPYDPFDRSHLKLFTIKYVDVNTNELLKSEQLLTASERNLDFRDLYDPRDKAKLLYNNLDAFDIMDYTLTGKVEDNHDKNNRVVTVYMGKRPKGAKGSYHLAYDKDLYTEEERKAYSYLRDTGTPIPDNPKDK

[10] = growth suppression of PTEN-null colon cells, dose response, cell-based, HCT116 PTEN knockout (AID 1047); assay type: functional;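 note: HCT116 colon tumor cells with PTEN knocked out; cells exposed to compound for 60 hours before readout; potency for loss of cell viability measured by luminescence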
[11] = growth suppression of beta-catenin-knockout colon cells, dose response, cell-based, HCT116, human colon tumor (AID 1045); assay type: functional;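 note: HCT116 colon tumor cells with beta catenin knocked out; cells exposed to compound for 60 hours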
[12] = system: H4; experiment: Luminescence Cell-Based Dose Response HTS to Identify Activators of 5'UTR Stem-Loop Driven Prion Protein mRNA Translation in H4 Neuroglioblastoma Cells. [Related pubchem assays: 1829 (Project Summary), 1814 (Primary HTS)]; assay type: functional; conditions: Homo sapiens
[13] = Luminescence Cell-Based Dose Response HTS to Identify Activators of Luciferase Translation or Activity in H4 […] Cells. [Related pubchem assays: 1829 (Project Summary), 1814 (Primary HTS)]; assay type: functional
[14] = Luminescence Cell-Based Dose Confirmation HTS to Identify Activators of 5'UTR Stem-Loop Driven Alpha-Synuclein mRNA Translation in H4 Neuroglioblastoma Cells. [Related pubchem assays: 1829 (Project Summary), 1814 (Primary HTS)]; assay type: functional
[15] = molecular target: Cytochrome P450 2C9 (Homo sapiens, UniProt P11712)
[16] = molecular target: T3, Cytochrome P450 1A2 (Homo sapiens, UniProt P05177);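 note: PubChem cytochrome P450 panel assay, CYP1A2 panel member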
T3 sequence (P05177 whole entry): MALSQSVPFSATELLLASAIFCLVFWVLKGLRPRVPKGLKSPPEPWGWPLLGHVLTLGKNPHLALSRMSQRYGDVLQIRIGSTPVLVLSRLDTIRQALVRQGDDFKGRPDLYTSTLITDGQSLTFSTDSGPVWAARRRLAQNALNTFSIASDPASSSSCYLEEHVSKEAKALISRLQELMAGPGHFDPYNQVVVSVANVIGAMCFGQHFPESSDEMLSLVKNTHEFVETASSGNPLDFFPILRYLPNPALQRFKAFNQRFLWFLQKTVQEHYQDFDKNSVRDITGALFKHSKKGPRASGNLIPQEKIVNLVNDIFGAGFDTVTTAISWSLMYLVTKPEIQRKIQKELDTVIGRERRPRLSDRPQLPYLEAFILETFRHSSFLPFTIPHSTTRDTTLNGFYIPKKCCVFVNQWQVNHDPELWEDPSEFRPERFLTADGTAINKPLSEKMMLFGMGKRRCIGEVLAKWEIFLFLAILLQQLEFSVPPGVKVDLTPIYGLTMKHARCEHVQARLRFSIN

T1 sequence (P11940 whole entry): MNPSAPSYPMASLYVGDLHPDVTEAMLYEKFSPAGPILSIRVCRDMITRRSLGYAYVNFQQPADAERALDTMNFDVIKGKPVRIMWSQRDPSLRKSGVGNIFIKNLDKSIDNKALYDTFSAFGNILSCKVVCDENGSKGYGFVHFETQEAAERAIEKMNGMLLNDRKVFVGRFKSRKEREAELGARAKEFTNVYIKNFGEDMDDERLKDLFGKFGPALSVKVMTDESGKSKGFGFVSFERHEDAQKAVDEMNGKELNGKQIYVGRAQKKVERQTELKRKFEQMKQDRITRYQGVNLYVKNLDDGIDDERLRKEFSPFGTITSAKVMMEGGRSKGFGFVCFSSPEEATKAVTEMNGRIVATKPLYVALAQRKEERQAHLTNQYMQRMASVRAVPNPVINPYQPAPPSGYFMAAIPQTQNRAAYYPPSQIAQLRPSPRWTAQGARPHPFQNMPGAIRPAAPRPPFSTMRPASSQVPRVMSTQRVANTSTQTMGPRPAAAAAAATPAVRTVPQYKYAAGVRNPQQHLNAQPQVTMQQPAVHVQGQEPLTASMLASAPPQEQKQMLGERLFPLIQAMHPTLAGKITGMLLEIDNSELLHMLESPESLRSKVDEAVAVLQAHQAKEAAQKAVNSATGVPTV
Chain of Luciferin 4-monooxygenase (P08659 whole entry): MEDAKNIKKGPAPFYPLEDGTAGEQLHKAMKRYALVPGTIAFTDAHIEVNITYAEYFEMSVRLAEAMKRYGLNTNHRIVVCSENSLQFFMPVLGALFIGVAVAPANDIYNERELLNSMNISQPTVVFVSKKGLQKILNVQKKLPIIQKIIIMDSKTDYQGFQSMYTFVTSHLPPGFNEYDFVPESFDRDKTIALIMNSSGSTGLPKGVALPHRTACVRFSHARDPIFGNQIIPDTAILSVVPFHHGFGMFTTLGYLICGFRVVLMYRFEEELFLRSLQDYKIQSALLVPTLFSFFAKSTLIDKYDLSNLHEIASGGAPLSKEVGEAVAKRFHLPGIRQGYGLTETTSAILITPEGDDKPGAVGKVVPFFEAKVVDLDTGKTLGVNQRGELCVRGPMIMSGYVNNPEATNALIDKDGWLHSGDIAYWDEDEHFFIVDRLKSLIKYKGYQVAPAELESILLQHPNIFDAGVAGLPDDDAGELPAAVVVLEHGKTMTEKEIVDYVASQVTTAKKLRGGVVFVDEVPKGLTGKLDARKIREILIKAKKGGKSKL
Chain of Cytochrome P450 3A4 (P08684 whole entry): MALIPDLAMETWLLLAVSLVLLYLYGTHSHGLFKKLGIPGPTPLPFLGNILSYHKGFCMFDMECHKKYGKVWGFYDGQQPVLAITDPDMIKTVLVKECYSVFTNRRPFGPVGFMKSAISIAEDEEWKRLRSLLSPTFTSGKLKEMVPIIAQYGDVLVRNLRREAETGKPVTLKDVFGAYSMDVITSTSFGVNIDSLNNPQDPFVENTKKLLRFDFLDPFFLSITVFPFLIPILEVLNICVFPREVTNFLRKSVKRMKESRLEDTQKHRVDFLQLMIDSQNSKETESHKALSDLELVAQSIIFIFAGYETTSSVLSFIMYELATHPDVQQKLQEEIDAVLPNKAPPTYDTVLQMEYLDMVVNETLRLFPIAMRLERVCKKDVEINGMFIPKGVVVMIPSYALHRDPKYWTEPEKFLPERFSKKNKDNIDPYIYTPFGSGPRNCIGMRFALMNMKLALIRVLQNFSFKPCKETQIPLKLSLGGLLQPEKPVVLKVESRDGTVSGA
Chain of Cytochrome P450 2C9 (P11712 whole entry): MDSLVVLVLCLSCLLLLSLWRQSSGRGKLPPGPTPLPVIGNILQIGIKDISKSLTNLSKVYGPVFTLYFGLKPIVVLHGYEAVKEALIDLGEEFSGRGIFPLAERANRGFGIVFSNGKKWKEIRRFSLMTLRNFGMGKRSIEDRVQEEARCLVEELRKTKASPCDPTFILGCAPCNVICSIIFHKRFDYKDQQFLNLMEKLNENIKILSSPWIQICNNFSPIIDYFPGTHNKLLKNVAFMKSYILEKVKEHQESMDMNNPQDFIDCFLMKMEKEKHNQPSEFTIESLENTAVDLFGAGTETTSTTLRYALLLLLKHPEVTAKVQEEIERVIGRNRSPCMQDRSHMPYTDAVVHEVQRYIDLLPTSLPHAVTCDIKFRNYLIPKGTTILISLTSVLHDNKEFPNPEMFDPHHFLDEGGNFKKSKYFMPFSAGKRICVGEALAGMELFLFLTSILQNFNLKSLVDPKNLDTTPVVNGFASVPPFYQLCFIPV

With `COc1ccc(CNC(=O)c2ccccc2NC(=O)C2=CSCCO2)c(OC)c1` the EC50 [1] was 15.7 µM (active) and the EC50 [2] was > 112 µM (not active).
In the case of `O=C(NCCc1c[nH]c2ccccc12)C(=O)c1c[nH]c2ccccc12`, the AC50 [3] was 1.48 µM (active).
For `O=C(Nc1ccccc1F)c1cnc(O)nc1O`, the EC50 [1] was > 112 µM (not active) and the EC50 [2] was > 112 µM (not active).
For `Cc1cccc2nc(CSCc3ccco3)cn12`, the IC50 [4] was > 66 µM (inactive) and the IC50 [5] was > 66 µM (inactive).
With `O=C1c2ccccc2C2=Nc3ccccc3SC(c3ccccc3F)C12` (configuration not stated) the EC50 [6] was 12.7 µM (active), the AC50 [7] was 0.355 µM (inconclusive) and the EC50 [8] was 8.24 µM (active). The EC50 [9] was 4.91 µM (active).
With `CC(=O)Nc1ccc(-c2csc(NC(=O)Cc3cccc(F)c3)n2)cc1` the AC50 [3] was 1.29 µM (active).
For `CCN(CC)CCNC(=O)c1ccc2c(=O)n(C3CCCC3)c(=S)[nH]c2c1`, the EC50 [10] was 17.2 µM (active) and the EC50 [11] was 14.1 µM (active).
With `COc1ccc(C(C)=O)cc1COc1cc(C)c(Cl)c(C)c1` the EC50 [6] was > 150 µM (not active), the EC50 [8] was > 150 µM (not active) and the EC50 [9] was > 150 µM (not active).
With `COc1ccc(S(=O)(=O)NCC2CCCN(Cc3ccc(OC)cc3F)C2)cc1` (configuration not stated) the EC50 [6] was > 150 µM (not active), the EC50 [8] was 114 µM (active) and the EC50 [9] was > 150 µM (not active).
For `COc1c(Cl)cnn(-c2ccc(C)cc2)c1=O`, the EC50 [10] was 15.5 µM (active) and the EC50 [11] was 11.5 µM (active).
For `CCc1noc(C)c1C(=O)OCC(=O)NC(=O)c1ccccc1`, the EC50 [6] was > 150 µM (not active), the EC50 [8] was > 150 µM (not active) and the EC50 [9] was > 150 µM (not active).
For `O=C(NC(=S)Nc1ccccc1N1CCCCC1)c1ccco1`, the IC50 [4] was > 66 µM (inactive) and the IC50 [5] was > 66 µM (inactive).
In the case of `O=C(NC(=S)Nc1cccnc1)c1cccc(Cl)c1`, the IC50 [4] was > 66 µM (inactive) and the IC50 [5] was > 66 µM (inactive).
In the case of `O=C(Cc1ccccc1)Nc1cccc(NC(=O)c2ccccc2)c1`, the AC50 [3] was 7.49 µM (active).
In the case of `O=C(Cn1cnc2c(oc3ccccc32)c1=O)c1ccccc1`, the EC50 [12] was > 120 µM (not active), the EC50 [13] was 29.6 µM (active) and the EC50 [14] was 104 µM (active).
In the case of `CCCC(=O)NC(Nc1cc(C(F)(F)F)ccc1Cl)C(Cl)(Cl)Cl` (configuration not stated), the EC50 [10] was 25.5 µM (active) and the EC50 [11] was 33.6 µM (active).
With `CCOC(=O)N1CCN(C(=O)CSCc2nc(-c3ccccc3F)oc2C)CC1` the AC50 [15] was 14.1 µM (inconclusive), the IC50 [4] was > 66 µM (inactive) and the AC50 [16] was 12.6 µM (inconclusive). The AC50 [7] was 25.1 µM (inconclusive) and the IC50 [5] was > 66 µM (inactive).
In the case of `CCOc1ccc(CN2CCN(CC(O)Cn3c4ccccc4c4ccccc43)CC2)cc1` (configuration not stated), the EC50 [10] was 9.94 µM (active) and the EC50 [11] was 9.01 µM (active).
For `COc1ccc2c(c1OC)C(=O)N1C2SC[C@H]1C(=O)NC1CCCC1` (some centres not stated), the IC50 [4] was > 66 µM (inactive) and the IC50 [5] was > 66 µM (inactive).
With `Cc1cccc(-c2oc3ccccc3c2-c2ccc3c(c2)OCO3)c1` the EC50 [6] was > 150 µM (not active), the EC50 [8] was 2.25 µM (active) and the EC50 [9] was 5.16 µM (active).
